Data as given in patent publication US20080171687A1, “Compositions And Methods For The Preparation And Administration Of Poorly Water Soluble Drugs” (Abraxis Bioscience, Inc., priority 2004, published 2008).
Values after ≈ are worked out from the molar mass of the structure shown.

Experiments:
physchem = details: organic solvent or mixture, thermodynamic from solid, Solubility In DMI (mg/ml)
[1] = solvent dimethyl isosorbide (DMI); dissolved with gentle heating as needed

Compound | solubility (physchem) | further results
CCC(C)n1ncn(-c2ccc(N3CCN(c4ccc(OCC5COC(Cn6cncn6)(c6ccc(Cl)cc6Cl)O5)cc4)CC3)cc2)c1=O (centres unmarked) [Itraconazole] | 9.6 mg/mL (≈ 13.6 mM) | –
CC[C@@]1(O)C(=O)OCc2c1cc1n(c2=O)Cc2cc3ccccc3nc2-1 [Campothecin] | – | solubility (physchem; solvent dimethyl isosorbide (DMI), dissolved with gentle heating as needed): < 1 mg/mL
CCc1c2c(nc3ccc(O)cc13)-c1cc3c(c(=O)n1C2)COC(=O)[C@]3(O)CC [SN-38] | – | Solubility In DMI [1]: <1 mg/mL
CC(C)c1cccc(C(C)C)c1O [Propofol] | – | Solubility In DMI (mg/ml) [1]: completely
COc1ccc2[nH]cc(CCNC(C)=O)c2c1 [Melatonin] | 192 mg/mL (≈ 827 mM) | –
CC(=O)O[C@@]12CO[C@@H]1C[C@H](O)[C@@]1(C)C(=O)[C@H](O)C3=C(C)[C@@H](OC(=O)[C@H](O)[C@@H](NC(=O)OC(C)(C)C)c4ccccc4)C[C@@](O)([C@@H](OC(=O)c4ccccc4)[C@H]21)C3(C)C [Docetaxel] | 90 mg/mL (≈ 111 mM) | –
CO[C@H]1C[C@@H]2CC[C@@H](C)[C@@](O)(O2)C(=O)C(=O)N2CCCC[C@H]2C(=O)O[C@H]([C@H](C)C[C@@H]2CC[C@@H](O)[C@H](OC)C2)CC(=O)[C@H](C)/C=C(\C)[C@@H](O)[C@@H](OC)C(=O)[C@H](C)C[C@H](C)/C=C/C=C/C=C/1C [Rapamycin] | 121 mg/mL (≈ 132 mM) | –
COc1ccc2[nH]c([S+]([O-])Cc3ncc(C)c(OC)c3C)nc2c1 (centres unmarked) [Omeprazole] | 17.4 mg/mL (≈ 50.4 mM) | –
